# According to PubChem BioAssay (NCI):
#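 Dose response: 5 concentrations. Exposure: 48 h. Format: 96-well plates. Endpoint: linear interpolation; highest concentration if not reached. The concentration for 50% growth inhibition is given as GI50. TGI denotes the concentration required for complete inhibition of growth.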
# Columns and labels:
# Assay in all cases: NCI-60 cell line screen, 48 h
# 786-0 renal = tested on: 786-0 renal
# A498 renal = tested on: A498 renal
# A549 NSCLC = tested on: A549 NSCLC
# ACHN renal = tested on: ACHN renal
# BT-549 breast = tested on: BT-549 breast
# CAKI-1 renal = tested on: CAKI-1 renal
# CCRF-CEM leukemia = tested on: CCRF-CEM leukemia
# COLO 205 colon = tested on: COLO 205 colon
# DU-145 prostate = tested on: DU-145 prostate
# EKVX NSCLC = tested on: EKVX NSCLC
# HCC-2998 colon = tested on: HCC-2998 colon
# HCT-116 colon = tested on: HCT-116 colon
# HCT-15 colon = tested on: HCT-15 colon
# HL-60(TB) leukemia = tested on: HL-60(TB) leukemia
# HOP-62 NSCLC = tested on: HOP-62 NSCLC
# HOP-92 NSCLC = tested on: HOP-92 NSCLC
# HS 578T breast = tested on: HS 578T breast
# HT29 colon = tested on: HT29 colon
# IGROV1 ovarian = tested on: IGROV1 ovarian
# K-562 leukemia = tested on: K-562 leukemia
# KM12 colon = tested on: KM12 colon
# LOX IMVI melanoma = tested on: LOX IMVI melanoma
# M14 melanoma = tested on: M14 melanoma
# MALME-3M melanoma = tested on: MALME-3M melanoma
# MCF7 breast = tested on: MCF7 breast
# MDA-MB-231 breast = tested on: MDA-MB-231 breast
# MDA-MB-435 = tested on: MDA-MB-435
# MOLT-4 leukemia = tested on: MOLT-4 leukemia
# NCI-H226 lung = tested on: NCI-H226 lung
# NCI-H23 lung = tested on: NCI-H23 lung
# NCI-H460 lung = tested on: NCI-H460 lung
# NCI-H522 lung = tested on: NCI-H522 lung
# NCI/ADR-RES ovarian = tested on: NCI/ADR-RES ovarian
# OVCAR-3 ovarian = tested on: OVCAR-3 ovarian
# OVCAR-4 ovarian = tested on: OVCAR-4 ovarian
# OVCAR-5 ovarian = tested on: OVCAR-5 ovarian
# OVCAR-8 ovarian = tested on: OVCAR-8 ovarian
# PC-3 prostate = tested on: PC-3 prostate
# RPMI-8226 leukemia = tested on: RPMI-8226 leukemia
# RXF 393 renal = tested on: RXF 393 renal
# SF-268 CNS = tested on: SF-268 CNS
# SF-295 CNS = tested on: SF-295 CNS
# SF-539 CNS = tested on: SF-539 CNS
# SK-MEL-2 melanoma = tested on: SK-MEL-2 melanoma
# SK-MEL-28 melanoma = tested on: SK-MEL-28 melanoma
# SK-MEL-5 melanoma = tested on: SK-MEL-5 melanoma
# SK-OV-3 ovarian = tested on: SK-OV-3 ovarian
# SN12C renal = tested on: SN12C renal
# SNB-19 CNS = tested on: SNB-19 CNS
# SNB-75 CNS = tested on: SNB-75 CNS
# SR leukemia = tested on: SR leukemia
# SW-620 colon = tested on: SW-620 colon
# T-47D breast = tested on: T-47D breast
# TK-10 renal = tested on: TK-10 renal
# U251 CNS = tested on: U251 CNS
# UACC-257 melanoma = tested on: UACC-257 melanoma
# UACC-62 melanoma = tested on: UACC-62 melanoma
# UO-31 renal = tested on: UO-31 renal
structure (smiles),measurement,setting,value
CN1CCC(n2cc(Nc3ncc4c(=O)n(-c5c(Cl)cccc5Cl)cc(Br)c4n3)cn2)CC1,GI50,786-0 renal,241 nM
same,TGI,786-0 renal,8320 nM
same,GI50,A498 renal,62.8 nM
same,TGI,A498 renal,3190 nM
same,GI50,A549 NSCLC,2320 nM
same,TGI,A549 NSCLC,11500 nM
same,GI50,ACHN renal,40.2 nM
same,TGI,ACHN renal,11900 nM
same,GI50,BT-549 breast,399 nM
same,TGI,BT-549 breast,4640 nM
same,GI50,CAKI-1 renal,98.4 nM
same,TGI,CAKI-1 renal,11500 nM
same,GI50,CCRF-CEM leukemia,75 nM
same,TGI,CCRF-CEM leukemia,6360 nM
same,GI50,COLO 205 colon,1140 nM
same,TGI,COLO 205 colon,8530 nM
same,GI50,DU-145 prostate,1300 nM
same,TGI,DU-145 prostate,14800 nM
same,GI50,EKVX NSCLC,2770 nM
same,TGI,EKVX NSCLC,18000 nM
same,GI50,HCC-2998 colon,740 nM
same,TGI,HCC-2998 colon,12500 nM
same,GI50,HCT-116 colon,585 nM
same,TGI,HCT-116 colon,10400 nM
same,GI50,HCT-15 colon,368 nM
same,TGI,HCT-15 colon,11300 nM
same,GI50,HL-60(TB) leukemia,160 nM
same,TGI,HL-60(TB) leukemia,853 nM
same,GI50,HOP-62 NSCLC,846 nM
same,TGI,HOP-62 NSCLC,13300 nM
same,GI50,HOP-92 NSCLC,102 nM
same,TGI,HOP-92 NSCLC,3730 nM
same,GI50,HS 578T breast,538 nM
same,TGI,HS 578T breast,16100 nM
same,GI50,HT29 colon,142 nM
same,TGI,HT29 colon,2620 nM
same,GI50,IGROV1 ovarian,110 nM
same,TGI,IGROV1 ovarian,7320 nM
same,GI50,K-562 leukemia,178 nM
same,TGI,K-562 leukemia,12500 nM
same,GI50,KM12 colon,551 nM
same,TGI,KM12 colon,16300 nM
same,GI50,LOX IMVI melanoma,480 nM
same,TGI,LOX IMVI melanoma,2920 nM
same,GI50,M14 melanoma,65 nM
same,TGI,M14 melanoma,13400 nM
same,GI50,MALME-3M melanoma,796 nM
same,TGI,MALME-3M melanoma,18100 nM
same,GI50,MCF7 breast,181 nM
same,TGI,MCF7 breast,7250 nM
same,GI50,MDA-MB-231 breast,821 nM
same,TGI,MDA-MB-231 breast,13400 nM
same,GI50,MDA-MB-435,148 nM
same,TGI,MDA-MB-435,10300 nM
same,GI50,MOLT-4 leukemia,64.6 nM
same,TGI,MOLT-4 leukemia,4260 nM
same,GI50,NCI-H226 lung,1290 nM
same,TGI,NCI-H226 lung,11400 nM
same,GI50,NCI-H23 lung,65.1 nM
same,TGI,NCI-H23 lung,594 nM
same,GI50,NCI-H460 lung,1350 nM
same,TGI,NCI-H460 lung,8910 nM
same,GI50,NCI-H522 lung,424 nM
same,TGI,NCI-H522 lung,2650 nM
same,GI50,NCI/ADR-RES ovarian,288 nM
same,TGI,NCI/ADR-RES ovarian,15300 nM
same,GI50,OVCAR-3 ovarian,223 nM
same,TGI,OVCAR-3 ovarian,3470 nM
same,GI50,OVCAR-4 ovarian,627 nM
same,TGI,OVCAR-4 ovarian,11300 nM
same,GI50,OVCAR-5 ovarian,1360 nM
same,TGI,OVCAR-5 ovarian,12300 nM
same,GI50,OVCAR-8 ovarian,268 nM
same,TGI,OVCAR-8 ovarian,5020 nM
same,GI50,PC-3 prostate,1720 nM
same,TGI,PC-3 prostate,16400 nM
same,GI50,RPMI-8226 leukemia,1150 nM
same,TGI,RPMI-8226 leukemia,10300 nM
same,GI50,RXF 393 renal,80.8 nM
same,TGI,RXF 393 renal,585 nM
same,GI50,SF-268 CNS,2160 nM
same,TGI,SF-268 CNS,16500 nM
same,GI50,SF-295 CNS,939 nM
same,TGI,SF-295 CNS,15500 nM
same,GI50,SF-539 CNS,33.7 nM
same,TGI,SF-539 CNS,166 nM
same,GI50,SK-MEL-2 melanoma,192 nM
same,TGI,SK-MEL-2 melanoma,1730 nM
same,GI50,SK-MEL-28 melanoma,4100 nM
same,TGI,SK-MEL-28 melanoma,18900 nM
same,GI50,SK-MEL-5 melanoma,419 nM
same,TGI,SK-MEL-5 melanoma,17500 nM
same,GI50,SK-OV-3 ovarian,275 nM
same,TGI,SK-OV-3 ovarian,13900 nM
same,GI50,SN12C renal,235 nM
same,TGI,SN12C renal,11400 nM
same,GI50,SNB-19 CNS,693 nM
same,TGI,SNB-19 CNS,13600 nM
same,GI50,SNB-75 CNS,611 nM
same,TGI,SNB-75 CNS,11300 nM
same,GI50,SR leukemia,42.5 nM
same,TGI,SR leukemia,1610 nM
same,GI50,SW-620 colon,1200 nM
same,TGI,SW-620 colon,11800 nM
same,GI50,T-47D breast,887 nM
same,TGI,T-47D breast,15500 nM
same,GI50,TK-10 renal,178 nM
same,TGI,TK-10 renal,17400 nM
same,GI50,U251 CNS,787 nM
same,TGI,U251 CNS,11200 nM
same,GI50,UACC-257 melanoma,1270 nM
same,TGI,UACC-257 melanoma,9280 nM
same,GI50,UACC-62 melanoma,901 nM
same,TGI,UACC-62 melanoma,22000 nM
same,GI50,UO-31 renal,70.8 nM
same,TGI,UO-31 renal,11500 nM
